Tested on: C57BL/6 mice
Assay: general behavioral experiments (LABORAS) after oral administration of caffeine
Type: in vivo
Settings: for Distance (distance of movement) / Number of times (number of movements) / Speed (speed of movement) / Time (time of movement): measured for an hour
Method: The experimental animals were C57BL/6 mice (male, 10 weeks old) purchased from KOATECH after receiving approval from the Institutional Animal Care and Use Committee (IACUC). The experimental animals were acclimatized for a week in the breeding room of the bio-efficacy evaluation center of KT&G (temperature 23±2° C., humidity 50±10%, light-dark cycle 12 hours) and then used in the experiments.
Caffeine was dissolved in a 0.9% saline solution and administered orally to the mice by using Zonde at a dosage of 10 ml/kg, and then general behavioral experiments were conducted. Samples of experimental examples 1 to 3 below were orally administered to the C57BL/6 mice, and then the number of movements, the speed of movement (mm/s), the distance of movement (meter), and the time of movement (sec) for an hour were measured using a LABORAS behavioral device.
Experimental example 1 was a control group, in which only 10 ml/kg of a 0.9% saline solution was orally administered. In experimental example 2, caffeine was dissolved in a 0.9% saline solution at a dose of 5 mg/kg and orally administered by using Zonde. In experimental example 3, caffeine was dissolved in a 0.9% saline solution at a dose of 30 mg/kg and orally administered by using Zonde. With respect to each of experimental examples 1 to 3, the alertness effect of caffeine was verified through general behavioral experiments, and results thereof are shown in Table 1 below.

[1] = caffeine 5 mg/kg oral in 0.9% saline
[2] = caffeine 30 mg/kg oral in 0.9% saline

Question: For Cn1c(=O)c2c(ncn2C)n(C)c1=O [Experimental example 2, caffeine], which “alertness effect (in words)” value (caffeine 5 mg/kg oral) is on record?
Answer: almost no effect

Question: What about the “Distance (distance of movement)” value [1] of the same molecule?
Answer: 20.48 ± 3.27 meter

Question: And the “Number of times (number of movements)” value [1]?
Answer: 532.5 ± 66.33 count

Question: And the “Speed (speed of movement)” value [1]?
Answer: 5.689 ± 0.91 mm/s

Question: And the “Time (time of movement)” value [1]?
Answer: 405.65 ± 21.89 s

Question: What about the “alertness effect (in words)” value (caffeine 30 mg/kg oral) of the same molecule?
Answer: alertness effect was observed

Question: What about the “Distance (distance of movement)” value [2] of the same molecule?
Answer: 33.59 ± 7.85 meter

Question: And the “Number of times (number of movements)” value [2]?
Answer: 1034.5 ± 220.05 count

Question: And the “Speed (speed of movement)” value [2]?
Answer: 9.33 ± 2.18 mm/s

Question: What about the “Time (time of movement)” value [2] of the same molecule?
Answer: 884.15 ± 154.86 s

Reference: patent US20250367114A1, “INHALABLE COMPOSITION FOR ENHANCING ALERTNESS AND VITALITY AND DEVICE FOR SUPPLYING THE INHALABLE COMPOSITION” (KT&G CORPORATION, priority 2024, published 2025)
